Measured values from US20120232062A1, “AZAINDAZOLES TO TREAT FLAVIVIRIDAE VIRUS INFECTION” (EIGER BIOPHARMACEUTICALS, INC., priority 2009, published 2012).
Like-named read-outs stand apart in the source and are kept apart here.

Experiments:
HCV genotype 1b = assay: HCV 1b replicon luciferase assay; format: cell-based
In short: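 Huh7 cells carrying a genotype 1b replicon with stable luciferase reporter, 10k cells/well, were treated 48 h at 37 °C with 10-point 5-fold dilutions from 25 μM (0.1% DMSO), in duplicate. Replication was read as Steady-Glo luminescence.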

[1] = Caco-2 permeability testing; format: in vitro ADME, human; details: human, 90 min; for Papp A→B at 90 min, 10 µM: Caco-2, pH 7.4, Caco-2, A-B, read-out: Permeability (second figure of Efflux/permeability), Papp (A-B); for Papp B→A at 90 min, 10 µM: Caco-2, pH 7.4, Caco-2, B-A, read-out: Efflux (first figure of Efflux/permeability), Papp (B-A)
Source text: Intestinal epithelium permeability is a critical characteristic that determines the rate and extent of human absorption and affects bioavailability of a drug candidate. Poor intestinal permeability leads to limited absorption. Generally, higher absorption is preferred. The Caco-2 cell line is a human colon adeno-carcinoma cell line that resembles the epithelial lining of the human small intestine. Several transport proteins that are expressed in human intestinal epithelium are also expressed in the Caco-2 cell model. Some transporter proteins are efflux systems which mediate the secretion of compounds from inside the cell back to the apical lumen (representative of the intestinal lumen), limiting overall absorption. In a permeability assay, the apparent permeability coefficient is measured between the apical to basolateral sides of a cell monolayer, Papp (A-B), and the basolateral to the apical side, Papp (B-A). Papp (A-B)<2×10^−6 cm/s is predictive of low permeability to the basolateral side, 2×10^−6 cm/s<Papp (A-B)<20×10^−6 cm/s is predictive of medium permeability, and Papp (A-B)>20×10^−6 cm/s is predictive of high permeability. In the B-A permeability assay, Papp (B-A) is measured and compounds evaluated for efflux potential. Together, these assay results are reported as a ratio of Papp (B-A) to Papp (A-B). Papp (B-A)/Papp (A-B)>3 are likely to be transported by one of the efflux systems, and have poor absorption. Papp (B-A)/Papp (A-B)<3 are likely to show reasonable intestinal absorption. An in vitro drug absorption assay suitable for use in predicting intestinal absorption of the compounds useful in the methods of the invention is described in this example. The embodiments of this assay described in this example were developed by Shanghai ChemPartner Co., Ltd., a corporation of China with its principal office located at 720 Cailun Road, Building No. 3, Shanghai 201203, China.
Caco-2 (ATCC, catalog No. HTB-37™) cells are cultured in growth medium (MEM+10% FBS+1% NEAA). The growth medium is prepared by adding 50 mL FBS and 5 mL NEAA to 445 mL of MEM or by adjusting the final volume according to actual needs. Trypsin-EDTA (Invitrogen, Cat #25200-072) is also used.
Hanks Balanced Salt Solution (HBSS, Invitrogen, Cat #14025-092) with 25 mM HEPES, pH 7.4, HBSS buffer with 0.2% DMSO (50 μL DMSO into 25 ml HBSS buffer), and HBSS buffer with 0.4% DMSO (100 μL DMSO into 25 ml HBSS buffer) are used.
10 mM stock solutions of a compound is prepared in DMSO and Lucifer Yellow in assay buffer using the formula (Actual Weight/Molecular Weight)/mL solvent=10 mM. Erythromycin, Metoprolol, and Atenolol are used as reference compounds. Donor solutions (10 μM for compounds and 5 μM for Lucifer Yellow) are prepared. For A-B, 4 μL of 10 mM compound stock solution and 2 μL of 10 mM Lucifer Yellow stock solution are loaded into 4 mL of HBSS buffer, and centrifuged (5 min, 4000 rpm) to precipitate undissolved particles. Supernatants are collected for compound dosing. For B-A, 4 μL (compounds) of 10 mM compound stock solution is added to 4 mL HBSS buffer with 0.2% DMSO, and centrifuged (5 min, 4000 rpm) to precipitate undissolved particles. Supernatants are collected for compound dosing.
Receiver solutions are prepared. For A-B, the solution is HBSS buffer with 0.4% DMSO. For B-A, 2 μL of 10 mM Lucifer Yellow stock solution is added to 4 mL of HBSS buffer with 0.2% DMSO. Compound solutions are prepared for standard curve (3 μM/1 μM/0.2 μM/0.04 μM/0.01 μM/0.005 μM):
1× solution: 3 μL of 20× solution (0.1-60 μM)+57 μL 0.4% DMSO HBSS+60 μL acetonitrile (ACN) with internal standard (IS, 200 ng/mL Osalmid). The assay was performed as described below
Stock cultures are maintained in MEM+10% FBS+1% NEAA, grown in 75 cm^2 tissue culture treated flasks and split (passed) 2 times weekly to maintain desired confluence. For maintenance passage, trypsinized cells are routinely distributed into new flasks at a standard passage ratio of 1:4. […]

[2] = Hepatitis C virus, Huh-7, 48 h, Table 1, Huh7 HCV 1b replicon, luciferase reporter, 48 hours, read-out: 1b EC50
[3] = Table 1, Huh7 HCV 1b replicon, luciferase reporter, 48 hours, read-out: 1b EC50

| Compound | EC50 (HCV genotype 1b; [2]) | Papp A→B at 90 min, 10 µM [1] | Papp B→A at 90 min, 10 µM [1] | EC50 (HCV genotype 1b; [3]) | EC50 (HCV genotype 1b; Hepatitis C virus, 48 h, read-out: EC50 in the 48 hour 1b replicon assay, 48 hour) |
| --- | --- | --- | --- | --- | --- |
| Cn1nc(C(=O)NC2CCN(CC3CCOCC3)CC2)c2ccc(N3CCCCCC3)nc21 [compound 1072] | 2.5 µM | 5.4 ×10⁻⁶ cm/s | 4.6 ×10⁻⁶ cm/s | – | – |
| Cn1nc(C(=O)NC2CCN(CCN3CCC(CO)CC3)CC2)c2ccc(N3CCCCCC3)nc21 [compound 1560] | 0.86 µM | 2 ×10⁻⁶ cm/s | 13.1 ×10⁻⁶ cm/s | – | – |
| Cn1nc(C(=O)NC2CCN(CCN3CCCCCC3)CC2)c2ccc(N3CCCCCCC3)nc21 [compound 1310] | 0.23 µM | 1.3 ×10⁻⁶ cm/s | 2.1 ×10⁻⁶ cm/s | – | – |
| CCCC(C)CN1CCC(NC(=O)c2nn(C)c3nc(N4CCCCCCC4)ccc23)CC1 (centres unmarked) [compound 1308] | 0.48 µM | 0.4 ×10⁻⁶ cm/s | 0.2 ×10⁻⁶ cm/s | – | – |
| CCCN1CCC(NC(=O)c2nn(C)c3nc(NC4CCCCCCC4)ccc23)CC1 [compound 1475] | 0.83 µM | 5.9 ×10⁻⁶ cm/s | 6.3 ×10⁻⁶ cm/s | – | – |
| CC1CCCCN1CCN1CCC(NC(=O)c2nn(C)c3nc(N4CCCCCC4)ccc23)CC1 (centres unmarked) [compound 1425] | 0.5 µM | 3 ×10⁻⁶ cm/s | 4 ×10⁻⁶ cm/s | – | – |
| Cn1nc(C(=O)NCc2cccs2)c2cc(N3CCCCC3)cnc21 [compound 1146] | 7.5 µM | 22 ×10⁻⁶ cm/s | 21 ×10⁻⁶ cm/s | – | – |
| CCN1CCC(NC(=O)c2nn(C)c3nc(N4CCCCCCC4)ccc23)CC1 [compound 1225] | 1.2 µM | 6.4 ×10⁻⁶ cm/s | 3.2 ×10⁻⁶ cm/s | – | – |
| Cn1nc(C(=O)NC2CCN(CC3CCCCC3)CC2)c2ccc(N3CCCCCCC3)cc21 [compound 1150] | 0.6 µM | 1.4 ×10⁻⁶ cm/s | 5.7 ×10⁻⁶ cm/s | – | – |
| Cn1nc(-c2cnc(C(=O)NCc3cccs3)s2)c2ccc(N3CCCCCC3)nc21 [compound 1129] | 0.83 µM | 6 ×10⁻⁶ cm/s | 4 ×10⁻⁶ cm/s | – | – |
| CC1CCC(C)N1CCN1CCC(NC(=O)c2nn(C)c3nc(N4CCCCCC4)ccc23)CC1 (centres unmarked) [compound 1562] | 1.9 µM | 6.7 ×10⁻⁶ cm/s | 6.3 ×10⁻⁶ cm/s | – | – |
| O=C(NC1CCN(CCN2CCCCC2)CC1)c1nn(CC(F)F)c2nc(N3CCCCCC3)ccc12 [compound 1488] | 0.64 µM | 3.3 ×10⁻⁶ cm/s | 3.5 ×10⁻⁶ cm/s | – | – |
| CC(C)N1CCC(NC(=O)c2nn(C)c3nc(N4CCCCCCC4)ccc23)CC1 [compound 1307] | 1 µM | 9.6 ×10⁻⁶ cm/s | 4.2 ×10⁻⁶ cm/s | – | – |
| CCC(CC)Oc1ccc2c(C(=O)NC3CCN(CC4CCCCC4)CC3)nn(C)c2n1 [compound 1074] | 0.88 µM | 6.6 ×10⁻⁶ cm/s | 1.6 ×10⁻⁶ cm/s | – | – |
| Cn1nc(C(=O)NC2CCN(S(C)(=O)=O)CC2)c2ccc(N3CCCCCC3)nc21 [compound 1063] | – | 50 ×10⁻⁶ cm/s | 16 ×10⁻⁶ cm/s | 3.9 µM | – |
| CC(C)CCN1CCC(NC(=O)c2nn(C)c3nc(N4CCCCCCC4)ccc23)CC1C (centres unmarked) [compound 1233] | 5.3 µM | – | – | – | – |
| COc1cncc(-c2ccccc2COc2ccc3c(C(=O)NC4CCNCC4)nn(C)c3n2)c1 [compound 1119] | 1.5 µM | – | – | – | – |
| CCN(CC)c1ccc2c(C(=O)NC3CCNCC3)nn(C)c2n1 [compound 860] | 2.9 µM | – | – | – | – |
| Cn1nc(COCC2CCNCC2)c2ccc(N3CCCCCC3)nc21 [compound 985] | 7.6 µM | – | – | – | – |

| Compound | EC50 (HCV genotype 1b; [2]) | Papp A→B at 90 min, 10 µM [1] | Papp B→A at 90 min, 10 µM [1] | EC50 (HCV genotype 1b; [3]) | EC50 (HCV genotype 1b; Hepatitis C virus, 48 h, read-out: EC50 in the 48 hour 1b replicon assay, 48 hour) |
| --- | --- | --- | --- | --- | --- |
| Cn1nc(C(=O)NC2CCNCC2)c2ccc(N3CCC(Cc4ccccc4)CC3)nc21 [compound 868] | 2.4 µM | – | – | – | – |
| Cn1nc(NC(=O)CC2CCCNC2)c2ccc(N3CCCCCC3)nc21 (centres unmarked) [compound 843] | 8.3 µM | – | – | – | – |
| Cn1nc(C(=O)NC2CCNCC2)c2ccc(N3CCCC(c4ccccc4)CC3)nc21 (centres unmarked) [compound 1026] | 1.6 µM | – | – | – | – |
| Clc1ccc(Cn2nc(COCCCN3CCCCC3)c3ccc(N4CCCCCCC4)nc32)cc1 [compound 1205] | 4 µM | – | – | – | – |
| O=C(NC1CCCNC1)c1nnc2n(Cc3ccc(Cl)cc3)c(N3CCCCCC3)ccc1-2 (centres unmarked) [compound 710] | 7.9 µM | – | – | – | – |
| Cn1nc(-c2nnc(C3CCN(CC(F)F)C3)o2)c2ccc(N3CCCCCCC3)nc21 (centres unmarked) [compound 1366] | 4 µM | – | – | – | – |
| Cn1nc(C(=O)NC2CCNCC2)c2ccc(NCC3CCCCC3)nc21 [compound 863] | 1.3 µM | – | – | – | – |
| Cn1nc(C(=O)NC2CCNCC2)c2ccc(OCc3ccccc3-c3ccco3)nc21 [compound 1100] | 1.4 µM | – | – | – | – |
| CCC(CC)Oc1ccc2c(COCC3CCNCC3)nn(Cc3ccc(Cl)cc3)c2n1 [EBP756] | – | – | – | – | < 3 µM |
| Cn1nc(-c2c[nH]c(C3CCCNC3)n2)c2ccc(N3CCCCCC3)nc21 (centres unmarked) [compound 1095] | 3.8 µM | – | – | – | – |
| Cn1nc(C(=O)NC2CCNCC2)c2ccc(OCc3ccccc3-c3ccccc3)nc21 [compound 969] | 1.3 µM | – | – | – | – |
| Cn1nc(C(=O)NC2CCN(Cc3ccc(-c4ccccc4)cc3)CC2)c2ccc(OCc3ccc(-c4ccccc4)cc3)nc21 [compound 973] | 5.4 µM | – | – | – | – |
| CC(C)n1nc(C(=O)NC2CCNCC2)c2ccc(N3CCCCCC3)nc21 [compound 857] | 3.1 µM | – | – | – | – |
| Cc1ccc(CN2CCC(NC(=O)c3nn(C)c4nc(N5CCCCCC5)ccc34)CC2)cc1 [compound 1045] | – | – | – | 1.1 µM | – |
| Cn1nc(C(=O)NC2CCN(CCN3CCC[C@H]3CO)CC2)c2ccc(N3CCCCCC3)nc21 [compound 1561] | 3.8 µM | – | – | – | – |
| Cn1nc(C(=O)NC2CCN(CC3CCCCC3)CC2)c2ccc(N(Cc3ccccc3)C3CCCCCC3)nc21 [compound 1184] | 0.168 µM | – | – | – | – |
| O=C(NC1CCCNC1)c1nn(Cc2ccc(Cl)cc2)c2nc(N3CCCCCC3)ccc12 (centres unmarked) [compound 705] | 2.7 µM | – | – | – | – |
| O=C(NC1CCNCC1)c1nn(CCc2ccc(Cl)cc2)c2nc(N3CCCCCC3)ccc12 [compound 855] | 3.7 µM | – | – | – | – |
| Cn1nc(C(=O)NC2CCNCC2)c2ccc(NC3CCCCCC3)nc21 [compound 866] | 1.1 µM | – | – | – | – |
